# Assay results as given in ChEMBL document CHEMBL3885881, “DrugMatrix”.
# Species on record: Rattus norvegicus
# Assay: DrugMatrix - Regimen: Daily Repeat
# Format: toxicity, organism-based, Sprague-Dawley
# Design: regimen Daily Repeat, gender Male, age 6-8 weeks
# Settings: in vivo, po, route oral GAVAGE, […]; for ABSOLUTE BASOPHIL / ABSOLUTE EOSINOPHIL / ABSOLUTE LYMPHOCYTE / ABSOLUTE MONOCYTE / ABSOLUTE SEGMENTED NEUTROPHIL / BASOPHIL / EOSINOPHIL / ERYTHROCYTE COUNT / HEMATOCRIT / HEMOGLOBIN / LEUKOCYTE COUNT / LYMPHOCYTE / MEAN CORPUSCULAR HEMOGLOBIN / MEAN CORPUSCULAR HEMOGLOBIN CONCENTRATION / MEAN CORPUSCULAR VOLUME / MONOCYTE / NEUTROPHIL / NUCLEATED RED BLOOD CELLS / PLATELET COUNT: tissue Blood; for ALANINE AMINOTRANSFERASE / ALBUMIN / ALKALINE PHOSPHATASE / ASPARTATE AMINOTRANSFERASE / BLOOD UREA NITROGEN / CARBON DIOXIDE / CHLORIDE / CHOLESTEROL / CREATINE PHOSPHOKINASE / CREATININE / GLUCOSE / LACTATE DEHYDROGENASE / LIPASE / PHOSPHORUS / POTASSIUM / SODIUM / TOTAL BILIRUBIN / TOTAL PROTEIN / URIC ACID: tissue Plasma
# [1] = 50 mg/kg, 120 h, dose level Low, time 5 day
# [2] = 175 mg/kg, 72 h, dose level High, time 3 day
# [3] = 175 mg/kg, 120 h, dose level High, time 5 day
smiles,measurement,setting,value
Oc1ncnc2[nH]ncc12 [ALLOPURINOL],ABSOLUTE BASOPHIL,[1],0 CELLS/uL
same,ABSOLUTE EOSINOPHIL,[1],49 CELLS/uL
same,ABSOLUTE LYMPHOCYTE,[1],17802 CELLS/uL
same,ABSOLUTE MONOCYTE,[1],49 CELLS/uL
same,ABSOLUTE SEGMENTED NEUTROPHIL,[1],1133.33 CELLS/uL
same,BASOPHIL,[1],0%
same,EOSINOPHIL,[1],0.33%
same,ERYTHROCYTE COUNT,[1],5.63 x10E6/uL
same,HEMATOCRIT,[1],35.03%
same,HEMOGLOBIN,[1],13.73 G/DL
same,LEUKOCYTE COUNT,[1],19.03 x10E3/uL
same,LYMPHOCYTE,[1],93%
same,MEAN CORPUSCULAR HEMOGLOBIN,[1],24.47 pg
same,MEAN CORPUSCULAR HEMOGLOBIN CONCENTRATION,[1],39.27 G/DL
same,MEAN CORPUSCULAR VOLUME,[1],62.33 fL
same,MONOCYTE,[1],0.33%
same,NEUTROPHIL,[1],6.33%
same,NUCLEATED RED BLOOD CELLS,[1],0 /100WBC
same,PLATELET COUNT,[1],1236.33 x10E3/uL
same,ALANINE AMINOTRANSFERASE,[1],56.33 u/L
same,ALBUMIN,[1],3.97 G/DL
same,ALKALINE PHOSPHATASE,[1],308 u/L
same,ASPARTATE AMINOTRANSFERASE,[1],104 u/L
same,BLOOD UREA NITROGEN,[1],20 mg/dL
same,CARBON DIOXIDE,[1],27 mmol/L
same,CHLORIDE,[1],100 MEQ/L
same,CHOLESTEROL,[1],65.33 mg/dL
same,CREATINE PHOSPHOKINASE,[1],626 u/L
same,CREATININE,[1],0.41 mg/dL
same,GLUCOSE,[1],169.33 mg/dL
same,LACTATE DEHYDROGENASE,[1],263.33 u/L
same,LIPASE,[1],10 u/L
same,PHOSPHORUS,[1],9.7 mg/dL
same,POTASSIUM,[1],5.66 MEQ/L
same,SODIUM,[1],141.17 MEQ/L
same,TOTAL BILIRUBIN,[1],0.2 mg/dL
same,TOTAL PROTEIN,[1],5.6 G/DL
same,URIC ACID,[1],0.83 mg/dL
same,ABSOLUTE BASOPHIL,[2],0 CELLS/uL
same,ABSOLUTE EOSINOPHIL,[2],0 CELLS/uL
same,ABSOLUTE LYMPHOCYTE,[2],8294 CELLS/uL
same,ABSOLUTE MONOCYTE,[2],350.5 CELLS/uL
same,ABSOLUTE SEGMENTED NEUTROPHIL,[2],4205.5 CELLS/uL
same,BASOPHIL,[2],0%
same,EOSINOPHIL,[2],0%
same,ERYTHROCYTE COUNT,[2],5.27 x10E6/uL
same,HEMATOCRIT,[2],32.2%
same,HEMOGLOBIN,[2],12.95 G/DL
same,LEUKOCYTE COUNT,[2],12.85 x10E3/uL
same,LYMPHOCYTE,[2],64%
same,MEAN CORPUSCULAR HEMOGLOBIN,[2],24.55 pg
same,MEAN CORPUSCULAR HEMOGLOBIN CONCENTRATION,[2],40.3 G/DL
same,MEAN CORPUSCULAR VOLUME,[2],61.1 fL
same,MONOCYTE,[2],3%
same,NEUTROPHIL,[2],33%
same,NUCLEATED RED BLOOD CELLS,[2],0 /100WBC
same,PLATELET COUNT,[2],1127 x10E3/uL
same,ALANINE AMINOTRANSFERASE,[2],101 u/L
same,ALBUMIN,[2],3.9 G/DL
same,ALKALINE PHOSPHATASE,[2],397.5 u/L
same,ASPARTATE AMINOTRANSFERASE,[2],153.5 u/L
same,BLOOD UREA NITROGEN,[2],113.5 mg/dL
same,CARBON DIOXIDE,[2],24.5 mmol/L
same,CHLORIDE,[2],93 MEQ/L
same,CHOLESTEROL,[2],99 mg/dL
same,CREATINE PHOSPHOKINASE,[2],283.5 u/L
same,CREATININE,[2],3.31 mg/dL
same,GLUCOSE,[2],154.5 mg/dL
same,LACTATE DEHYDROGENASE,[2],217.5 u/L
same,LIPASE,[2],12 u/L
same,PHOSPHORUS,[2],16.65 mg/dL
same,POTASSIUM,[2],6.46 MEQ/L
same,SODIUM,[2],141.2 MEQ/L
same,TOTAL BILIRUBIN,[2],0.35 mg/dL
same,TOTAL PROTEIN,[2],6.55 G/DL
same,URIC ACID,[2],0.2 mg/dL
same,ABSOLUTE BASOPHIL,[3],0 CELLS/uL
same,ABSOLUTE EOSINOPHIL,[3],81.33 CELLS/uL
same,ABSOLUTE LYMPHOCYTE,[3],15570.33 CELLS/uL
same,ABSOLUTE MONOCYTE,[3],599.67 CELLS/uL
same,ABSOLUTE SEGMENTED NEUTROPHIL,[3],6148.67 CELLS/uL
same,BASOPHIL,[3],0%
same,EOSINOPHIL,[3],0.33%
same,ERYTHROCYTE COUNT,[3],5.7 x10E6/uL
same,HEMATOCRIT,[3],35.5%
same,HEMOGLOBIN,[3],13.77 G/DL
same,LEUKOCYTE COUNT,[3],22.4 x10E3/uL
same,LYMPHOCYTE,[3],69.33%
same,MEAN CORPUSCULAR HEMOGLOBIN,[3],24.17 pg
same,MEAN CORPUSCULAR HEMOGLOBIN CONCENTRATION,[3],38.8 G/DL
same,MEAN CORPUSCULAR VOLUME,[3],62.27 fL
same,MONOCYTE,[3],2.67%
same,NEUTROPHIL,[3],27.67%
same,NUCLEATED RED BLOOD CELLS,[3],0 /100WBC
same,PLATELET COUNT,[3],1373 x10E3/uL
same,ALANINE AMINOTRANSFERASE,[3],78.67 u/L
same,ALBUMIN,[3],3.73 G/DL
same,ALKALINE PHOSPHATASE,[3],409 u/L
same,ASPARTATE AMINOTRANSFERASE,[3],102 u/L
same,BLOOD UREA NITROGEN,[3],46.33 mg/dL
same,CARBON DIOXIDE,[3],26.33 mmol/L
same,CHLORIDE,[3],105.33 MEQ/L
same,CHOLESTEROL,[3],83.67 mg/dL
same,CREATINE PHOSPHOKINASE,[3],242.33 u/L
same,CREATININE,[3],1.36 mg/dL
same,GLUCOSE,[3],145 mg/dL
same,LACTATE DEHYDROGENASE,[3],182.33 u/L
same,LIPASE,[3],10.33 u/L
same,PHOSPHORUS,[3],7.7 mg/dL
same,POTASSIUM,[3],6.87 MEQ/L
same,SODIUM,[3],149 MEQ/L
same,TOTAL BILIRUBIN,[3],0.2 mg/dL
same,TOTAL PROTEIN,[3],5.87 G/DL
same,URIC ACID,[3],0.2 mg/dL
